The values that follow come from patent US20070275104A1, “Food Compositions and Methods of Treating Periodontal Disease” (priority 2006, published 2007).

Common to all, as to assay type: biochemical
The test system of one test is MMP-2 or 9. Briefly: BIOMOL colorimetric assay kit screen of botanical extracts, MMP-2 or 9 proteolytic activity. The settings on record: first round screening; relative to Doxycycline. An excerpt: (§1) In excess of 80 botanical extracts (BE), were screened in vitro for inhibition against MMP-2, 8, & 9 proteolytic activity. […] Individual calorimetric assay kits (BIOMOL) were used according to the manufacturer's instructions to measure the proteolytic activity of MMP's-2, 8, and 9 in the presence or absence of individual extracts and define mixtures of extracts. The known MMP-inhibitor, Doxycycline was used as an internal standard for comparison of inhibiting activity. The following final concentrations of individual ingredients are combined (along with additional confirmatory test of the “neat” ingredients). Again all tests include a “gold standard” positive control (Doxycycline). The purpose of this interference testing is to see whether combined ingredients result in different levels of inhibition for all three MMP's (2, 8, 9) than found for individual ingredients. All samples are dissolved or extracted in water where practical and otherwise specified.

Another test has as its target T1, MMP-8 (Homo sapiens, UniProt P22894).
T1 construct: purchased BIOMOL
Kind of test: BIOMOL colorimetric assay kit screen of botanical extracts, MMP-8 proteolytic activity. Particulars: first round screening; relative to Doxycycline.
Text: as §1

The next test addresses T2, Recombinant MMP-2 (Homo sapiens, UniProt P08253).
T2 construct: made in house
T2 sequence (P08253 110-660): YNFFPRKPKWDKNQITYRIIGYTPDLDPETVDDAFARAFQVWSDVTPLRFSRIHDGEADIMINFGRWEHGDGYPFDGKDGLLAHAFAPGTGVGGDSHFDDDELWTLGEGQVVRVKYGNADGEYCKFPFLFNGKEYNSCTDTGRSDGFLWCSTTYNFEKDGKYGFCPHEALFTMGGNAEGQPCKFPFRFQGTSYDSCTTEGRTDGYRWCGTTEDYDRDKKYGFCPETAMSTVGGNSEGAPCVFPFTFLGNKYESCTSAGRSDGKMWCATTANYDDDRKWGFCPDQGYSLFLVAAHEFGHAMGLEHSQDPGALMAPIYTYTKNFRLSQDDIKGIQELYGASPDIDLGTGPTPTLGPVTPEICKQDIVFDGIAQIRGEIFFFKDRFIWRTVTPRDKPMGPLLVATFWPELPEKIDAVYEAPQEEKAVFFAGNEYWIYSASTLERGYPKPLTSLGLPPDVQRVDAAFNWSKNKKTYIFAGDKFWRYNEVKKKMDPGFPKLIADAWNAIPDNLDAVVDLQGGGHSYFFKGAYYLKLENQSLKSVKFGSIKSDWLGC
Kind of test: MMP-2 enzyme assay with DQ gelatin fluorescent substrate. The settings on record: 22° C., EAB pH 7.0, soluble phase of extracts. As to the method: (§2) From the studies of repeated activity and lack of interference, we were able to identify three lead ingredients for further development (A, C, D; A & B were two forms of the same dried extract). These were tested in a second laboratory, using a more sensitive in vitro (non-cellular) assay system, again for individual activity and interference/synergy among MMP-inhibitors and the IL-1-inhibitor against all three forms of MMP. These assays used enzyme kinetic dose curves to determine the IC50 of each extract, Doxycyclin, and combinations of extracts (including the IL-1-inhibitor, e.g., Rosehips).
MMP-2 and MMP-9: Recombinant MMP-2 and MMP-9 were expressed as recombinant proteins and purified in constitutively active forms.
DQ gelatin: A highly labeled porcine gelatin substrate (Molecular Probes, Eugine, Oreg.) was used for the enzyme assays with MMP-2 and MMP-9. The substrate degradation was measured with λex at 494 nm and λem at 515 nm
To reduce any self-degradation of the gelatin substrate, all assays were performed at 22° C. The enzyme assay buffer (EAB) used for MMP-2, MMP-9, and MMP-8 was 50 mM Tris, pH 7.0, 200 mM NaCl, 5 mM CaCl2, 1 μM ZnCl2, 0.05% Brij 35. Assays were performed under conditions where the substrates were not rate limiting. […]

The target in test [1] is T3, MMP-8 (purified human neutrophil collagenase) (Homo sapiens, UniProt P22894).
T3 construct: purchased EMD Biosciences/Calbiochem 444229
Briefly: MMP-8 enzyme assay with fluorescent peptide substrate. Particulars: APMA-activated MMP-8, 22° C., EAB pH 7.0. The method, then: as §2
MMP-8: Purified human neutrophil collagenase was purchased from EMD
Biosciences/Calbiochem, cat # 444229. Activation of MMP-8 was required for the experiments and was performed using aminophenylmercuric acetate (APMA) for 2 h at 37° C.
Peptide substrate: The fluorescent peptide substrate Mca-Pro-Leu-Gly-Leu-Dnp-Ala-Arg-NH2 was for measuring the MMP-8 activities (Peptides International, Louisville, Ky.). The Mca is a fluorescent group and Dnp is a quencher. When the cleavage occurs, a strong fluorescent signal is released and can be measured with λex at 328 nm and λem at 393 nm.
To reduce any self-degradation of the gelatin substrate, all assays were performed at 22° C. […]

Structures are written as SMILES.

T3 sequence (P22894 101-467): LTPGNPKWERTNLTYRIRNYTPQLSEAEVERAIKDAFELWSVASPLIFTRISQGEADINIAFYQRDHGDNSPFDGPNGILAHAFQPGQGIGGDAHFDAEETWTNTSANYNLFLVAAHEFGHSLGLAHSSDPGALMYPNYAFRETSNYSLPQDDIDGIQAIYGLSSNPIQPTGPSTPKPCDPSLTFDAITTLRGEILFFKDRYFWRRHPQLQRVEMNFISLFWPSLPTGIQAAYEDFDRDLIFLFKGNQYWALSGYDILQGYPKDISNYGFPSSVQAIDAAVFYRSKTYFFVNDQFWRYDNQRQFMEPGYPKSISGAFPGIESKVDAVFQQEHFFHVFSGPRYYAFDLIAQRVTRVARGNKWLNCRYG
T1 sequence (P22894 100-262 limits assumed): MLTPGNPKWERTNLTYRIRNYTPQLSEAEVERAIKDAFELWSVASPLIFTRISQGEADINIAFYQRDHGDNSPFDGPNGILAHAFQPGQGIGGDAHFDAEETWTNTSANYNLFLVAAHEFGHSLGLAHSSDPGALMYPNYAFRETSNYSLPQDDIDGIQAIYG

Take `O=c1c(O)c(-c2ccc(O)c(O)c2)oc2cc(O)cc(O)c12` [E) Quercetin, Quercetin]: in the test on MMP-2 or 9, the “Inhib. Relative to Doxy. (Fold = % inhib X/% inhib Dox), MMP-2 or 9” value was 1.56 Fold. The “Inhib. Relative to Doxy. (Fold = % inhib X/% inhib Dox), MMP-8” value at MMP-8 is 0.82 Fold.

On to `C[C@H]1c2cccc(O)c2C(O)=C2C(=O)[C@]3(O)C(O)=C(C(N)=O)C(=O)[C@@H](N(C)C)[C@@H]3[C@@H](O)[C@@H]21` [DOX, Doxycycline], for which the “IC50 for MMP-2” value on Recombinant MMP-2 was 32 mg/L. In addition, the “IC50 for MMP-8” value in test [1] amounted to 35 mg/L.
